No end group written: not given here.
Tests used:
[1] = system: brine shrimp (Artemia salina); assay: Brine shrimp toxicity of EDTA (Example 5); assay type: in vivo; details: for mortality at 20000 µM: Artemia salina, 20 mM; for mortality: concentrations less than or equal to 400 µM
Excerpt: This Example describes the toxicity and efficacy of EDTA in reducing pathogenesis and promoting survival of shrimp. Brine shrimp (Artemia salina) were utilized as a model organism to simulate potential impacts on Pacific whiteleg shrimp (Penaeus vannamei).
Artemia salina (a species of brine shrimp) were used. Additional materials included: ethylenediaminetetraacetic acid (EDTA; 99% pure) powder (USB Corporation Instant Ocean (Instant Ocean Spectrum Brands. Blacksburg, VA); and Artemia salina eggs were used.
Artemia salina eggs were hatched in artificial seawater (Instant Ocean) under controlled conditions. Newly hatched brine shrimp were then exposed to varying concentrations of EDTA in experimental tanks. A separate set of tanks was used for each concentration of EDTA (20 mM, 400 uM, 200 uM, and 100 uM).
Control tanks treated with saline water were prepared to observe the natural behavior and survival rate of Artemia salina without EDTA exposure.
Brine shrimp were divided into different tanks for exposure to varying concentrations (20 mM, 400 uM, 200 uM, and 100 uM) of EDTA.
Mortality and behavior of brine shrimp were recorded at 24 and 48 hours post-exposure.

E. coli (ECX) = assay: Zone of inhibition, Nisin with and without EDTA (Example 6); assay type: cell-based, Escherichia coli; details: 4.05 mg/mL Nisin in CAB, with or without 20.8 mM EDTA
Description: (§1) ImmuCell Nisin A (96% pure) suspended in citric acid buffer (pH 3.4) at 4.05 mg/mL (ImmuCell, Portland, ME); Nisin A (Nissen®-A; 10% pure powder, Siveele, Breda, Netherlands): Citric Acid Buffer (CAB) pH=3.4; 60 mm Petri Dishes; Laboratory control strain of Staphylococcus aureus (“SAI”), experimental strains of Escherichia coli (“ECY” and “ECX”) and Vibrio parahaemolyticus (“VPY”, and “VPX”); and ethylenediaminetetraacetic acid (EDTA: 99% pure) powder (USB Corporation) were used.
(§2) On the day before the experiment, stocks of Vibrio parahaemolyticus, Staphylococcus aureus, and Escherichia coli were prepared. An inoculation loop was sterilized, cooled, and used to extract cells, which were then cultured in nutrient broth at 37° C. for 16 to 20 hours. The bacterial density was adjusted to approximately 10^7 to 10^8 CFU/mL. Subsequently, 100 μL of each culture, normalized to about 10^6 to 10^7 CFU/mL, was evenly spread on agar plates using sterile glass beads, creating a uniform bacterial lawn. Four identical lawns were prepared for each bacterial type to ensure replicative testing of treatments.
(§3) Two forms of Nisin, 96% pure Nisin (Immucell) and 10% pure Niseen (Sivele), were prepared in citric acid buffer (CAB) at a concentration of 4.05 mg/mL. To assess synergistic effects, EDTA was added to each Nisin solution to achieve a final concentration of 20.8 mM.
(§4) […] of each treatment formulation were spotted onto the prepared bacterial lawns. These plates were then incubated at 37° C. for 16 to 20 hours to allow for bacterial growth and ZOI formation.
(§5) The ZOI were observed and measured in millimeters to measure the degree of bacterial growth suppression.

E. coli (ECY) = assay: as above; assay type: cell-based, Escherichia coli; details: 4.05 mg/mL Nisin in CAB, with or without 20.8 mM EDTA
Description: as §1, §2, §3, §4, §5

[2] = system: Vibrio parahaemolyticus (VPY); assay: as above; assay type: cell-based; details: 4.05 mg/mL Nisin in CAB, with or without 20.8 mM EDTA
Description: as §1, §2, §3, §4, §5

[3] = system: Staphylococcus aureus (SA1); assay: as above; assay type: cell-based; details: 4.05 mg/mL Nisin in CAB, with or without 20.8 mM EDTA
Description: as §1, §2, §3, §4, §5

[4] = system: Vibrio parahaemolyticus (VPX); assay: as above; assay type: cell-based; details: 4.05 mg/mL Nisin in CAB, with or without 20.8 mM EDTA
Description: as §1, §2, §3, §4, §5

[5] = system: Staphylococcus aureus (SA1); assay: Zone of inhibition on agar plates (Example 4); assay type: cell-based; details: for concentration with no killing / concentration with reduced growth / killing down to a concentration: pre-purification
Description: (§6) ImmuCell Nisin A (96% pure) suspended in citric acid buffer (pH-3.4) at 4.86 mg/mL (ImmuCell, Portland, ME); Nisin A (Nissen®-A; 10% pure powder, Siveele, Breda, Netherlands): Nisin Z (26.7% pure) powder (Handry, Brussels, Belgium): Citric Acid Buffer (CAB) pH=3.4; Distilled H2O (dH2O); Instant Ocean (Instant Ocean Spectrum Brands, Blacksburg. VA): Artemia salina eggs: 60 mm Petri Dishes; Laboratory control strains of Staphylococcus aureus and Escherichia coli (“SA1” and “EC-18,” respectively): 15 mL Falcon Tubes; and Slide-A-Lyzer Dialysis Flask, 2K MWCO, 250 mL (Thermo Scientific, Rockford, IL) were used.
(§7) Nisin variants (Nisin A, Nisin Z, and ImmuCell Nisin A) were dissolved in either citric acid buffer (CAB, pH 3.4) for Nisin A or dH2O for Nisin Z to make a stock solution of 4.86 mg/mL. Serial dilutions were performed to achieve the different concentrations (4.86 mg/mL to 0.005 mg/mL) for the experiments.
(§8) Parallel to the toxicity tests, antibacterial efficacy was evaluated by applying Nisin solutions (before and after basic purification via Slide-A-Lyzer Dialysis) onto agar plates pre-inoculated with laboratory control strains Staphylococcus aureus (“SA1”) and Escherichia coli (“EC-18”). Zones of inhibition were measured 24 hours post-incubation at 37° C.
(§9) Mortality and behavior of the brine shrimp were recorded at 24 and 48 hours post-exposure. For the antimicrobial tests, the diameter of inhibition zones on agar plates containing the laboratory control strains were measured and recorded.

Escherichia coli (EC-18) = assay: Zone of inhibition on agar plates (Example 4); assay type: cell-based; details: for concentration with no killing / concentration with reduced growth / killing down to a concentration: pre-purification
Description: as §6, §7, §8, §9

[6] = system: brine shrimp (Artemia salina); assay: Brine shrimp toxicity of Nisin formulations (Example 4); assay type: in vivo; details: for efficacy in reducing mortality in shrimp: Nisin Z (26.7% pure) compared with Nisin A (10% pure)
Description: This Example describes the efficacy of various Nisins: Nisin Z, Nisin A, and ImmuCell Nisin A. This experiment assessed the safety and antimicrobial efficacy of various Nisin formulations in treating Vibrio parahaemolyticus infections, a common pathogen in aquaculture environments. Brine shrimp (Artemia salina) were utilized as a model organism to simulate potential impacts on Pacific whiteleg shrimp (Penaeus vannamei).
as §7
Artemia salina eggs were hatched in artificial seawater (Instant Ocean) under controlled conditions. Newly hatched brine shrimp were then exposed to varying concentrations of each Nisin solution in experimental tanks. A separate set of tanks was used for each type of Nisin formulation.
Control tanks (treated with either CAB or saline water) were prepared to observe the natural behavior and survival rate of Artemia salina without Nisin exposure.
Brine shrimp were divided into different tanks for exposure to varying concentrations (2.43 mg/mL, 0.608 mg/mL, 0.152 mg/mL, and 0.038 mg/mL) of Nisin A, Nisin Z, and ImmuCell Nisin A.
as §9

Suspension in dH2O = assay type: physicochemical
Description: as §7

[7] = Retention by 2 kDa dialysis membrane; assay type: physicochemical; details: water sampled at 4 and 24 hours
Description: as §8
Next, the zones of inhibition for Nisin Z pre- and 48 hours post-2 kDa dialysis membrane purification were spotted onto a lawn of a control strain (SA1). […] Water samples were taken to test if any drug was lost at the 4 hour mark and again at the 24 hour mark. […] To remove additional contaminants, additional filtration is performed to purify Nisin Z.

Vibrio parahaemolyticus = assay: Brine shrimp efficacy challenge trial with and without Nisin (Example 7); assay type: in vivo, Artemia salina; details: vs control group exposed to Vibrio parahaemolyticus without Nisin Z; example in present tense
Description: Brine shrimp (Artemia salina) are used and are prepared according to methods detailed in Examples 1-6. Additional materials, methods and experimental design may be similar to that described in Examples 1-6. A virulent strain of Vibrio parahaemolyticus is cultured to a concentration of about […], which is used for the challenge. Shrimp groups are divided: one group receives no treatment (as control) and the other group set receives brine infused with Nisin Z (concentration as determined optimal in prior experiments).

[8] = highly acidic conditions, high temperatures, proteases; cited from earlier work
brine shrimp = assay: Pre- and post-dialysis toxicity assay and Nisin/EDTA toxicity assay (Example 9); assay type: in vivo, Artemia salina; details: after 48-hour dialysis; example in present tense
Excerpt: Utilizing materials, methods and experimental designs as described in Examples 1-6, Nisin Z is subjected to a 48-hour dialysis treatment to reduce impurities. The toxicity assay involves exposing brine shrimp to treated and untreated samples of Nisin Z, both alone and in combination with EDTA at a concentration of […].

[9] = all dilutions 4.86 mg/mL-0.005 mg/mL
[10] = unpurified, in dH2O, 0.608 mg/mL

With `O=C(O)CN(CCN(CC(=O)O)CC(=O)O)CC(=O)O` [EDTA, ethylenediaminetetraacetic acid] the mortality at 20000 µM ([1]; 24 hours post-exposure) was 100%, the mortality at 20000 µM ([1]; 48 hours post-exposure) was 100% and the mortality ([1]; 24 hours post-exposure) was “zero mortality”. The mortality ([1]; 48 hours post-exposure) was “zero mortality”.

With “ImmuCell Nisin A: ImmuCell Nisin A (96% pure) suspended in citric acid buffer (ImmuCell, Portland, ME) (ITSISLCTPGCKTGALMGCNMKTATCHCSIHVSK; cysteine pairing not given here; also: lantibiotic, modifications not placed; UniProt P13068 24-57, looked up)” the “Diameter (zone of inhibition)” value (E. coli (ECX)) was 10 mm, the “Diameter (zone of inhibition)” value (E. coli (ECY)) was 6 mm and the “Diameter (zone of inhibition)” value [2] was 4 mm. The “Diameter (zone of inhibition)” value [3] was 13 mm, the “Diameter (zone of inhibition)” value [4] was 4 mm and the zones of inhibition [5, 9] was “clear zones of inhibition”. The zones of inhibition (Escherichia coli (EC-18); [9]) was “clear zones of inhibition”.

In the case of “Nisin A: Nisin A (Nissen®-A; 10% pure powder, Siveele, Breda, Netherlands) (ITSISLCTPGCKTGALMGCNMKTATCHCSIHVSK; cysteine pairing not given here; also: lantibiotic, modifications not placed; UniProt P13068 24-57, looked up)”, the “efficacy in reducing mortality in shrimp” value [6] is reported as “comparable efficacy”, the mortality ([6]; unpurified, in dH2O, 0.152 mg/mL) is reported as “showed mortality” and the mortality [6, 10] is reported as “drastic increase in mortality”. The “suspension with dH2O as solvent” value (Suspension in dH2O) was “did not go fully into suspension”, the “Diameter (zone of inhibition)” value (E. coli (ECX)) was 8 mm and the “Diameter (zone of inhibition)” value (E. coli (ECY)) was 4 mm. For the same compound, the “Diameter (zone of inhibition)” value [2] was 0 mm, the “Diameter (zone of inhibition)” value [3] was 13 mm and the “Diameter (zone of inhibition)” value [4] was 4 mm. For the same compound, the “concentration with no killing” value [5] was 0.005 mg/mL, the “concentration with reduced growth” value [5] was 0.009 mg/mL and the “killing down to a concentration” value [5] was 0.019 mg/mL. For the same compound, the “concentration with no killing” value (Escherichia coli (EC-18)) was 0.005 mg/mL, the “concentration with reduced growth” value (Escherichia coli (EC-18)) was 0.009 mg/mL and the “killing down to a concentration” value (Escherichia coli (EC-18)) was 0.019 mg/mL.

For “Nisin Z: Nisin Z (26.7% pure) powder (Handry, Brussels, Belgium) (ITSISLCTPGCKTGALMGCNMKTATCNCSIHVSK; not fully specified (residues 2, 5, 33, bridges); cysteine pairing not given here; UniProt P29559 24-57, looked up)”, the “loss of Nisin into the dH2O” value [7] was “no loss of Nisin”, the “efficacy in reducing mortality in shrimp” value [6] was “comparable efficacy” and the toxicity ([6]; unpurified, in dH2O, 0.152 mg/mL to 0.038 mg/mL, 48 hours) was “no toxicity”. The mortality [6, 10] was “drastic increase in mortality”, the “suspension with dH2O as solvent” value (Suspension in dH2O) was “went into suspension fully” and the mortality rates (Vibrio parahaemolyticus) was “significantly lower mortality rates”. The “zones of inhibition pre- and 48 hours post-dialysis” value ([5]; 2 kDa dialysis membrane purification) was “same sized zones”, the “concentration with no killing” value [5] was 0.005 mg/mL and the “concentration with reduced growth” value [5] was 0.009 mg/mL. For the same compound, the “killing down to a concentration” value [5] was 0.019 mg/mL, the “concentration with no killing” value (Escherichia coli (EC-18)) was 0.005 mg/mL and the “concentration with reduced growth” value (Escherichia coli (EC-18)) was 0.009 mg/mL. For the same compound, the “killing down to a concentration” value (Escherichia coli (EC-18)) was 0.019 mg/mL.

For aureocin A53, the stability [8] is given as “stable under highly acidic conditions, high temperatures, and is not affected by proteases”.

With “post-dialyzed Nisin Z: Nisin Z subjected to a 48-hour dialysis treatment to reduce impurities (ITSISLCTPGCKTGALMGCNMKTATCNCSIHVSK; cysteine pairing not given here; also: lantibiotic nisin-Z, modifications not given here; UniProt P29559 24-57, looked up)” the toxicity (brine shrimp) was “reduced toxicity”.
